Test: mn = molality of the nth substance listed, in mol/kg
Settings: 298.15 K, 101 kPa, Liquid; for viscosity: Capillary tube (Ostwald / Ubbelohde) method; for speed of sound: Sing-around technique in a fixed-path interferometer; for mass density: Vibrating tube method

CCCCCCCC[n+]1ccn(C)c1.F[B-](F)(F)F [1-methyl-3-octylimidazolium tetrafluoroborate] + O
Settings	mass density [kg/m3]	speed of sound [m/s]	viscosity [mPa·s]
m1 = 0.00225	–	–	0.8929
m1 = 0.0045	997.19	1497.4	–
m1 = 0.0058	997.23	1497.5	–
m1 = 0.0077	997.29	1497.8	–
m1 = 0.00773	–	–	0.8974
m1 = 0.01093	–	–	0.8997
m1 = 0.0112	997.4	1498.3	–
m1 = 0.01518	–	–	0.9029
m1 = 0.017	997.58	1499	–
m1 = 0.01948	–	–	0.9059
m1 = 0.0196	997.66	1499.4	–
m1 = 0.0235	997.78	1499.9	–
m1 = 0.02476	–	–	0.9094
m1 = 0.0264	997.87	1500.3	–
m1 = 0.0311	–	–	0.914
m1 = 0.0369	998.19	1501.7	–
m1 = 0.03923	–	–	0.9201
m1 = 0.0428	998.37	1502.5	–
m1 = 0.0454	998.45	1502.9	–
m1 = 0.04705	–	–	0.9255

CCCCCCCC[n+]1ccn(C)c1.[Cl-] [1-methyl-3-octylimidazolium chloride] + O
Settings	mass density [kg/m3]	speed of sound [m/s]	viscosity [mPa·s]
m1 = 0.0074	–	–	0.8986
m1 = 0.0127	997.14	1499.2	–
m1 = 0.01484	–	–	0.9052
m1 = 0.017	997.17	1500	–
m1 = 0.02425	–	–	0.9131
m1 = 0.0272	997.24	1502	–
m1 = 0.039	997.32	1504.4	–
m1 = 0.04255	–	–	0.9281
m1 = 0.0555	997.43	1507.5	–
m1 = 0.05607	–	–	0.9387
m1 = 0.06607	–	–	0.946
m1 = 0.0693	997.52	1510.1	–
m1 = 0.07893	–	–	0.956
m1 = 0.0892	997.65	1513.8	–
m1 = 0.0928	–	–	0.968
m1 = 0.1002	997.72	1515.7	–
m1 = 0.1061	–	–	0.9779
m1 = 0.1179	997.83	1518.5	–
m1 = 0.1353	997.94	1521.5	–
m1 = 0.1679	998.14	1526.8	–
m1 = 0.183	998.23	1529.5	–
m1 = 0.1948	998.3	1531.3	–

CCCCn1cc[n+](C)c1.F[B-](F)(F)F [1-butyl-3-methylimidazolium tetrafluoroborate] + O
Settings	mass density [kg/m3]	speed of sound [m/s]	viscosity [mPa·s]
m1 = 0.00382	–	–	0.8922
m1 = 0.01067	–	–	0.8943
m1 = 0.0151	997.61	1497.7	–
m1 = 0.02196	–	–	0.8986
m1 = 0.03489	–	–	0.9024
m1 = 0.0355	998.36	1499.1	–
m1 = 0.04696	–	–	0.9053
m1 = 0.05635	–	–	0.9095
m1 = 0.0662	–	–	0.9133
m1 = 0.07543	–	–	0.9162
m1 = 0.0764	999.85	1502	–
m1 = 0.08767	–	–	0.9198
m1 = 0.09802	–	–	0.9239
m1 = 0.1052	1000.89	1504	–
m1 = 0.1284	1001.72	1505.5	–
m1 = 0.1538	1002.64	1507.3	–
m1 = 0.1803	1003.58	1509.1	–
m1 = 0.2059	1004.49	1510.9	–
m1 = 0.2269	1005.22	1512.3	–
m1 = 0.2505	1006.06	1513.9	–

CCCCCCCCOS(=O)(=O)[O-].CCCCn1cc[n+](C)c1 [1-butyl-3-methylimidazolium octyl sulfate] + O
Settings	mass density [kg/m3]	speed of sound [m/s]	viscosity [mPa·s]
m1 = 0.008	997.23	1498.5	–
m1 = 0.00921	–	–	0.9054
m1 = 0.0148	997.38	1500.1	–
m1 = 0.01899	–	–	0.9173
m1 = 0.0215	997.53	1501.6	–
m1 = 0.02803	–	–	0.9278
m1 = 0.0301	997.72	1503.6	–
m1 = 0.035	997.83	1504.7	–
m1 = 0.03646	–	–	0.9388
m1 = 0.0423	997.99	1506.2	–
m1 = 0.04596	–	–	0.9507
m1 = 0.0492	998.14	1506.9	–
m1 = 0.05551	–	–	0.9615
m1 = 0.06482	–	–	0.9748
m1 = 0.0668	998.52	1507.5	–
m1 = 0.07522	–	–	0.9873
m1 = 0.08499	–	–	0.9986
m1 = 0.0888	998.99	1508.1	–
m1 = 0.0981	–	–	1.015
m1 = 0.1542	1000.35	1509.5	–
m1 = 0.2466	1002.19	1511.6	–
m1 = 0.3369	1003.92	1513.9	–

CCCCn1cc[n+](C)c1.COS(=O)(=O)[O-] [1-butyl-3-methylimidazolium methyl sulfate] + O
Settings	mass density [kg/m3]	speed of sound [m/s]	viscosity [mPa·s]
m1 = 0.00791	–	–	0.8954
m1 = 0.0096	997.41	1498	–
m1 = 0.01626	–	–	0.8999
m1 = 0.02449	–	–	0.9046
m1 = 0.0289	998.13	1500.5	–
m1 = 0.0329	–	–	0.9095
m1 = 0.0411	998.59	1502	–
m1 = 0.04142	–	–	0.9133
m1 = 0.0522	–	–	0.9182
m1 = 0.0584	999.23	1504.2	–
m1 = 0.06083	–	–	0.9236
m1 = 0.07206	–	–	0.9287
m1 = 0.0828	1000.11	1507.2	–
m1 = 0.08297	–	–	0.9354
m1 = 0.09627	–	–	0.9428
m1 = 0.1188	1001.49	1512	–
m1 = 0.1481	1002.58	1515.7	–
m1 = 0.1736	1003.51	1519	–
m1 = 0.2021	1004.58	1522.6	–
m1 = 0.2252	1005.44	1525.6	–

CCCCn1cc[n+](C)c1.[Cl-] [1-butyl-3-methylimidazolium chloride] + O
Settings	mass density [kg/m3]	speed of sound [m/s]	viscosity [mPa·s]
m1 = 0.0123	997.21	1498.3	–
m1 = 0.01554	–	–	0.8981
m1 = 0.01952	–	–	0.9005
m1 = 0.02	997.31	1499.3	–
m1 = 0.0252	–	–	0.9024
m1 = 0.0279	997.41	1500.3	–
m1 = 0.0349	997.5	1501.2	–
m1 = 0.03495	–	–	0.9062
m1 = 0.0404	997.57	1501.9	–
m1 = 0.04454	–	–	0.9101
m1 = 0.05402	–	–	0.9143
m1 = 0.0624	997.85	1504.8	–
m1 = 0.06772	–	–	0.9197
m1 = 0.08128	–	–	0.9258
m1 = 0.09508	–	–	0.9323
m1 = 0.107	998.41	1510.6	–
m1 = 0.1132	–	–	0.9412
m1 = 0.1175	998.54	1512	–
m1 = 0.1296	998.69	1513.5	–
m1 = 0.1521	998.97	1516.5	–
m1 = 0.1677	999.16	1518.6	–
m1 = 0.1852	999.38	1520.9	–
m1 = 0.2113	999.7	1524.3	–
m1 = 0.236	1000.01	1527.6	–
m1 = 0.2591	1000.29	1530.7	–
m1 = 0.2718	1000.45	1532.4	–
